Legend:
[1] = test system: TNF-α production; experiment: Inhibition of TNF-α production following LPS-stimulation of human PBMC and human whole blood; assay type: cell-based; details: in vitro studies; relative to thalidomide
From the text: In a specific embodiment, the pharmacological properties of 3-(3,4-dimethoxy-phenyl)-3-(1-oxo-1,3-dihydro-isoindol-2-yl)-propionamide are characterized in in vitro studies. Studies examine the effects of the compound on the production of various cytokines. Inhibition of TNF-α production following LPS-stimulation of human PBMC and human whole blood by the compound is investigated in vitro. […] The pharmacological effects of 3-(3,4-dimethoxy-phenyl)-3-(1-oxo-1,3-dihydro-isoindol-2-yl)-propionamide may derive from its action as an inhibitor of the generation of inflammatory cytokines.

[2] = Cardiovascular and respiratory function in anesthetized dogs; assay type: in vivo, Beagle dogs
Protocol: The effects of 3-(3,4-dimethoxy-phenyl)-3-(1-oxo-1,3-dihydro-isoindol-2-yl)-propionamide on cardiovascular and respiratory function are investigated in anesthetized dogs. Two groups of Beagle dogs (2/sex/group) are used. One group receives three doses of vehicle only and the other receives three ascending doses of the compound (200, 400, and 800 mg/kg). In all cases, doses of the compound or vehicle are successively administered via infusion through the jugular vein separated by intervals of at least 30 minutes.
The cardiovascular and respiratory changes induced by 3-(3,4-diethoxy-phenyl)-3-(1-oxo-1,3-dihydro-isoindol-2-yl)-propionamide are minimal at all doses when compared to the vehicle control group.

COc1ccc(C(CC(N)=O)N2Cc3ccccc3C2=O)cc1OC (stereo not drawn) [3-(3,4-dimethoxy-phenyl)-3-(1-oxo-1,3-dihydro-isoindol-2-yl)-propionamide]
pharmacological activity profile, times more potent than thalidomide [1]: five to fifty | cardiovascular and respiratory changes compared to the vehicle control group ([2]; all doses (200, 400, and 800 mg/kg), infusion through the jugular vein): minimal | deviations in femoral blood flow, respiratory parameters, and Qtc interval ([2]; common to both the control and treated groups): not considered treatment-related | arterial blood pressure effect at higher doses ([2]; higher doses): not seen | duration of the arterial blood pressure effect ([2]; low dose): approximately 15 minutes | arterial blood pressure, difference between vehicle and treatment groups ([2]; low dose, statistically significant): small increase
